Data as given in patent US20220338465A1, “FLUIDIC PLATFORMS FOR PERFUSABLE VASCULARIZED TISSUES” (Massachusetts Institute of Technology, priority 2021, published 2022).
“Also recorded” adds a separate entry of the source.

Key:
HUVEC monoculture = experiment: Inhibitory tests on MVN formation by HUVEC monoculture in fibrin gel under IF, single channel device; assay type: cell-based, human
Method: (§1) FIGS. 8A-8E are graphs showing that IF enhances the vasculogenesis ability of EC through upregulation of MMP-2. MVN was formed statically with HUVEC monoculture in 3-channel device MVN was formed with HUVEC monoculture in single channel device under IF induced by 10 mm H2O pressure difference, or with various inhibitors added: 100 μM PAI-1, 200 U/ml aprotinin, 50 μM marimast, 50 μM NSC 405020, 100 μg/ml MMP-1 neutralizing antibody and 100 μg/ml control antibody. Samples were pooled at day 3. n=3 FIGS. 8A-8D are graphs showing the statistical analysis of morphological parameters and perfusability of perfusable vessels cultured with various concentration of ARP-100. IF induced by 10 mm H2O pressure difference were applied to all cases. n=5 devices for control, n=3 devices for each inhibitor treated group. Significance was calculated with two sample t tests. ***P<0.01. FIG. 8E is a graph of vascular permeability measurements of 40 kDa dextran for perfusable MVNs formed under various conditions. n=3 devices for each group, 3 measurements were performed in each device at different ROIs.
(§2) Green fluorescent protein (“GFP”) tagged human umbilical vein endothelial cells (HUVECs) and human lung fibroblasts (HLFs) were seeded in a 7:1 ratio for all static and IF experiments. Devices were imaged under confocal microscopy with dextran dye perfused at day 6, when MVN were interconnected and perfusable. Devices were seeded with HUVECs and HLFs in combination and HUVECs alone.
(§3) Perfusability is a crucial factor when evaluating the quality of engineered MVN, since the major function of vessels is to transport nutrients, oxygen, metabolic wastes and various cells through perfusable lumens. Perfusability is measured as the ratio between dextran dye cover area (perfusable vessels) and GFP HUVEC cover area (all the vessels). […] To better interpret perfusability, MVN with at least one perfusable vessels across the gel region is defined as partially perfusable, and MVN with perfusability over 80% is defined as fully perfusable.
HUVEC monoculture of the same concentration were also seeded in single channel devices of FIG. 5B and subjected to IF.
Culture media was also supplemented with high concentration (100 uM) plasminogen activator inhibitor-1, which inhibits both uPA and tPA, or aprotinin, which inhibits plasmin.
ARP-100 (IC50 values are 12, 200, 4500, >50000 and >50000 nM for MMP-2, -9, -3, -1, -7, respectively) and NSC 405020 (selective inhibitor of the collagenolytic activity of MT1-MMP without affecting the catalytic activity of cellular MT1-MMP) were tested as specific inhibitors for MMP-2 and MMP-14. 14. High concentrations of anti-MMP-1 neutralizing antibody were used to inhibit MMP-1 activity

HUVEC and HLF coculture = experiment: MVN formation by HUVEC and HLF coculture under IF with MMP-2 inhibitor; assay type: cell-based, human; conditions: 20 uM
Method: FIGS. 10A-10D are graphs showing that IF enhances formation of fully perfusable microvascular network made by HUVEC and HLF. FIGS. 10A-10D are Statistical analysis of morphological parameters and perfusability of perfusable vessels cultured with various concentration of ARP-100. n=6 devices for control, n=3 devices for each inhibitor treated group. Significance was calculated with two sample t tests. ***P<0.01.
as §2, §3

[1] = test system: MVN formed by HUVEC monoculture; experiment: Vascular permeability of 40 kDa dextran in perfusable MVN; assay type: cell-based, human; conditions: HUVEC monoculture with 10 μM inhibitor under IF
Method: as §1, with “FIG. 8E is a graph of vascular permeability measurements of 40 kDa dextran for perfusable MVNs formed under various conditions. n=3 devices for each group, 3 measurements were performed in each device at different ROIs.” left out
In summary, MVN formed without supporting cells tends to be leakier. Since vascular permeability is a critical aspect of functionality of engineered MVN, vascular permeability of 40 kD dextran was measured and compared under various conditions where perfusable vessels can be robustly formed. […] Moreover, all the measurements were in the order of 10^−8 cm/s, which are quite low for vascular permeability measured using 40 kDa dextran. […]

[2] = test system: primary human brain endothelial cells (BECs), brain pericytes, and astrocytes; experiment: BBB MVN formation under IF with MMP-2 specific inhibitor; assay type: cell-based
Method: BBB MVN were formed, consisting of primary human brain endothelial cells (BECs), brain pericytes, and astrocytes.
Triculture were then seeded into single channel devices and grown under IF.
All MVN tissues were immunstained and studied for histology and morphology. Quantitative PCR was also performed to measure MMP-2 levels. The effect of a MMP-2 specific inhibitor was also tested in the BBB model to antagonize the effect induced by IF, as observed in MVNs formed with HUVEC monoculture or HUVEC and HLF co-culture.

MMP-2 = target: T1, MMP-2 (Homo sapiens, UniProt P08253); conditions: cited from earlier work
T1 sequence (P08253 110-660): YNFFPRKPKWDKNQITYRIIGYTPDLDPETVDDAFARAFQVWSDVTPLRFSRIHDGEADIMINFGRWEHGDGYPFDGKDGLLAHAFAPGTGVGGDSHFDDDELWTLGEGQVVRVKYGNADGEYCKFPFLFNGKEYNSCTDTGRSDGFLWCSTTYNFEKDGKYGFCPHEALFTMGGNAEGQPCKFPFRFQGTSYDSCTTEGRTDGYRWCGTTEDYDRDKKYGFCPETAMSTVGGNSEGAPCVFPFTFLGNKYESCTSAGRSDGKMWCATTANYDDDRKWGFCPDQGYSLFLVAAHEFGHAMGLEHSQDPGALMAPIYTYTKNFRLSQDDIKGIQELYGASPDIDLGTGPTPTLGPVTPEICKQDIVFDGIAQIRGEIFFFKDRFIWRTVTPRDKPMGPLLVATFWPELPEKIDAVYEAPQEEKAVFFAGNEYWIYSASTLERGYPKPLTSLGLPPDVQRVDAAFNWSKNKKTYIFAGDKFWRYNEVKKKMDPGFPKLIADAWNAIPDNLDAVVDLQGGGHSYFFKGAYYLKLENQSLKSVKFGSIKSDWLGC

MMP-3 = MMP-3 (Homo sapiens, UniProt P08254); conditions: cited from earlier work
MMP-3, sequence (P08254 100-477): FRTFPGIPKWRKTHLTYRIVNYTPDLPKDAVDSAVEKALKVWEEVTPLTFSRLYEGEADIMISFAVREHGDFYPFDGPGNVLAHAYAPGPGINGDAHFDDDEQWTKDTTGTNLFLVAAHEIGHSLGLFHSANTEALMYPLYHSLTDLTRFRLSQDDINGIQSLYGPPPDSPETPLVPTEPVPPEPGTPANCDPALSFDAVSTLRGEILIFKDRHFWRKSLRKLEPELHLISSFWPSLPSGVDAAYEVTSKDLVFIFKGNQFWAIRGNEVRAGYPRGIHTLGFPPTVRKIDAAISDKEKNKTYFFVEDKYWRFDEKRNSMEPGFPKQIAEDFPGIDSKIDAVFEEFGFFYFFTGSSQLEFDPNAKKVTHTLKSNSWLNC

MMP-1 = target: T2, MMP-1 (Homo sapiens, UniProt P03956); conditions: cited from earlier work
T2 sequence (P03956 100-469): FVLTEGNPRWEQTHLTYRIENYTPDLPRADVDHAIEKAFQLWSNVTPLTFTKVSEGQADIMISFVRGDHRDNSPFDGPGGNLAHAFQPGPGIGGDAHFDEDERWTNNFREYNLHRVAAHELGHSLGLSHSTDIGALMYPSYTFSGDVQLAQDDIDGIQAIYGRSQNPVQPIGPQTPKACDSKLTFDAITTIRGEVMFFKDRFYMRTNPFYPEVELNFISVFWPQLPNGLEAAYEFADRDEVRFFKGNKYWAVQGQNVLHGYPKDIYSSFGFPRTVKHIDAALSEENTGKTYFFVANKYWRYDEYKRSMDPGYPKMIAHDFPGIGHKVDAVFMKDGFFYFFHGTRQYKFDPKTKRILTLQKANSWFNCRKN

MMP-7 = target: T3, MMP-7 (Homo sapiens, UniProt P09237); conditions: cited from earlier work
T3 sequence (P09237 95-267): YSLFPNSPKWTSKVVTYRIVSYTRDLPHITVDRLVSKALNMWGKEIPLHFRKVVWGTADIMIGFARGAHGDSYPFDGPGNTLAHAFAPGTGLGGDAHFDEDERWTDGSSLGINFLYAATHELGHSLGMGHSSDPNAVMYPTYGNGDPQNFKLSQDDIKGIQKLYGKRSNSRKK

MMP-9 = MMP-9 (Homo sapiens, UniProt P14780); conditions: read-out: IC50 for MMP-9; cited from earlier work
MMP-9, sequence (P14780 94-707): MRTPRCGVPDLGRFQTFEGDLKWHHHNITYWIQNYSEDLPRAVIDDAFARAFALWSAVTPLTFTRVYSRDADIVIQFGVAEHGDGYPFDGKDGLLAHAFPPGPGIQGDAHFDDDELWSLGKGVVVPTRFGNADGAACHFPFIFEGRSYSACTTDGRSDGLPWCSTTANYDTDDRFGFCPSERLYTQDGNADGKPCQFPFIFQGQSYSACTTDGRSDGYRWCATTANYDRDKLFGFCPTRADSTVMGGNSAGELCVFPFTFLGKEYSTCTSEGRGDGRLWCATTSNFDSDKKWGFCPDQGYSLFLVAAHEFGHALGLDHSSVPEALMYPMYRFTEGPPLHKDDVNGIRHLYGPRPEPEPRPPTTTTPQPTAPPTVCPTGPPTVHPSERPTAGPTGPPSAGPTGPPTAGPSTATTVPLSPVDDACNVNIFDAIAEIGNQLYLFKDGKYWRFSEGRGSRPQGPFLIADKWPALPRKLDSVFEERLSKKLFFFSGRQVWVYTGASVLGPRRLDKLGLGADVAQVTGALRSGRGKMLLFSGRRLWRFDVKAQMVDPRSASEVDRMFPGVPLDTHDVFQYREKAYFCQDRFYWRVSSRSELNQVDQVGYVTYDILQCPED

CCCC(C)NC(=O)c1ccc(Cl)c(Cl)c1 (stereo not drawn) [NSC 405020]
changes in formed MVN (HUVEC monoculture; 50 μM): didn't induce any noticeable changes in formed MVN

plasminogen activator inhibitor-1
development of fully perfusable MVN (HUVEC monoculture; 100 uM in culture media): did not affect the development of fully perfusable MVN

aprotinin
development of fully perfusable MVN (HUVEC monoculture; 200 U/ml in culture media): did not affect the development of fully perfusable MVN

CC(C)ON(CC(=O)NO)S(=O)(=O)c1ccc(-c2ccccc2)cc1 [ARP-100]
MVN morphology (vessel diameter, coverage area, branches) (HUVEC monoculture; 10 μM): significantly narrower vessels, reduced coverage area and increased branches; also recorded: effectively reduced the average diameter and coverage area of vessels | perfusability of MVN (HUVEC monoculture; 10 μM, in comparison with control group): perfusability well maintained | perfusion of MVN with dextran dye (HUVEC monoculture; 20 μM): no vessels can be successfully perfused with dextran dye | network structure development (HUVEC monoculture; 50 uM, day 5): complete failure in developing network structure | perfusability of MVN (HUVEC and HLF coculture): can maintain high perfusability | vascular permeability of 40 kD dextran [1]: ~10^−8 cm/s | BBB network vessel morphology ([2]; day 3, 20 uM compared with 10 μM): thinner and sparser vessels | BBB network perfusability and morphology ([2]; day 6, higher concentration (20 uM)): disconnected thin network segments without any perfusable vessels | BBB network perfusability and morphology ([2]; day 6, low concentration (10 μM)): became perfusable with much thinner vessels compared to untreated ones | IC50 (MMP-2): 12 nM | IC50 (MMP-3): 4500 nM | IC50 (MMP-1): > 50000 nM | IC50 (MMP-7): > 50000 nM | IC50 (MMP-9): 200 nM

CNC(=O)[C@@H](NC(=O)[C@H](CC(C)C)[C@H](O)C(=O)NO)C(C)(C)C [marimast]
vessel formation (HUVEC monoculture; 50 μM, 5 days): completely disrupted the vessel formation process
